“And” between values parts separate entries of the source, which are not always exact repeats. Equal entries are not always repeated. “Also recorded” adds a separate entry of the source.
Tests used:
[1] = Trolox Equivalent Antioxidant Capacity (TEAC) assay; format: biochemical; conditions: for ABTS radical inhibition: Table A, 50 μg/ml and 250 μg/ml where stated
Description: This method is based on the ability of antioxidant molecules to inactivate ABTS° ^+ radical with a long lifetime, compared to Trolox, a water-soluble vitamin E analog, used as the positive control. ABTS° ^+ radical is blue-green chromophore with a characteristic absorption at 734 nm.
The samples of the test substances and Trolox are diluted in PBS buffer to obtain the chosen concentrations, Then, 200 μl of ABTS° ^+ at a concentration of 7 mM is added to 50 μl of sample or Trolox solution in 96-well plates.
The absorbance of the various samples is read every 2 minutes for 6 minutes (incubation time) at ambient temperature. The results are given as a percentage of ABTS radical inhibition, and as Trolox equivalent (μM).

CnAOEC cells [2] = assay: 3H-thymidine proliferation test in canine aortic endothelial cells; format: cell-based; conditions: for effect on CnAOEC cell proliferation: reference substances, phase 1, 48 hours exposure
Description: The cells are cultured in a culture medium containing CECGM (Canine Endothelial Cell Growth Medium) growth factors and previously coated with AFS (Attachment Factor Solution) agent to assist with the adherence thereof.
The confluent CnAOEC cell cultures were re-inoculated in 96-well culture plates (10,000 cells per […]). Six hours after the inoculation thereof, the cells were exposed to ^3H-thymidine (final concentration: 1 μCi/ml) and to the respective test agents for 48 hours, and were subjected to two washing steps with PBS. After a treatment with trypsin and a freeze-thaw cycle, the DNA incorporating ^3H-thymidine was captured on a glass fiber filter using a “Betaplate™ 96-bien-Cell Harvester” (Wallac, Turku).
The quantities of ^3H-thymidine incorporated in the control cells (without adding test agent) were defined as 100% and the results were expressed as a function of these control cells.
The soy isoflavones were solubilized in DMSO. The experimental samples, and those of the respective controls (DMSO free from test substance) contained a final DMSO concentration of 1%.
The statistical evaluation is based on three or four separate experiments, each being performed with 2 to 4 independent wells.

DPPH antioxidant test = format: biochemical
Description: The absorbance of the mixture is read at 540 nm every 5 minutes for 30 minutes at ambient temperature. After reduction, the color of the solution disappears (change from a violet color to a light yellow color). The reduction (referred to herein as “inhibition” or “quenching”) percentage reflects the free radical scavenging capacity of the test sample. Trolox is also used as a positive control. The results are given as a DPPH radical inhibition percentage.

CnAOEC cells [3] = assay: Protection of CnAOEC cells against H2O2 oxidative stress, MTT viability; format: cell-based, canine; conditions: 2 mM H2O2; for protective effect on CnAOEC cell viability: 50 μg/ml; for protective effect on CnAOEC cell viability against H2O2: 1 to 250 μg/ml
Description: The plates are then centrifuged, and the formazan resulting from the reaction with MTT is solubilized in DMSO. The absorbance is measured at 570 nm, with a correction at 690 nm. The ability of the natural substances to protect cells against the adverse effects of oxidative stress was evaluated in CnAOEC cells. […] After the pretreatment period, the cells were subjected to oxidative stress (2 mM H2O2) for 24 hours and the cell viability was evaluated using the MTT test as described above. For this test, the data are means obtained from eight different experiments±Standard Deviation (SD). They were analyzed statistically using a one-way ANOVA Student t-test. The differences were considered to be significant when p<0.05.

CnAOEC cells [4] = assay: 3H-thymidine DNA fragmentation apoptosis test in canine aortic endothelial cells; format: cell-based; conditions: for inhibition of the pro-apoptotic effects of free fatty acids: linoleic acid or γ-linolenic acid plus antioxidant, FIGS. 3 and 4; for effect on CnAOEC cell apoptosis: reference substances, phase 1, 24 hours exposure
Description: The 60 mm plates containing semi-confluent CnAOEC cells were labeled with ^3H-thymidine (1 μCi/ml) for 36 hours. These cells were then inoculated in 24-well culture plates (50,000 cells/well). After the exposure thereof to the agents under test (24 hours), the cells were treated with a lysis buffer (20 mmol/1 TrisHCl, pH 7.5, and 0.4% of Triton X-100 in PBS). The radiolabeled fragmented (apoptotic) DNA present in the supernatant was counted using a liquid scintillation analyzer. The results were then correlated with the total radioactivity incorporated in the cells (quantified after digestion of the remaining suspension with 180 μg/ml of DNase). The values calculated for the control cells (without adding test agent) were set at 100% and the results were expressed as a function of these control cells. Each time the reference substances were dissolved in ethanol (final concentration 1.5%), an identical quantity of ethanol was added to all the other wells, including the control wells.
The apoptosis tests were conducted with radiolabeled CnAOEC cells, at 60% confluence and in culture dishes previously treated with fibronectin.
The statistical evaluation is based on three separate experiments, each being performed with 2 to 4 independent wells.
The modulation of CnAOEC cell apoptosis (variation measured as a % relative to the control set at 100%) is performed in comparison to the reference substance glutathione (GSH).

CnAOEC cells [5] = format: cell-based, canine; conditions: dog, 24 h, 60 µM
Description: The MTT test was used for evaluating the viability of CNAOEC cells exposed to cytotoxic treatments (60 μM of digitonin or addition between 0.1% and 20% of DMSO or at increasing concentrations (ranging from 0.5 mM to 16 mM) of H2O2 for 24 hours so as to induce oxidative stress.
In this test, the cell damage is evaluated 24 hours after treatment with the cytotoxic substance by means of a 4-hour incubation with MTT at 0.5 mg/ml, 37° C. and 5% CO2. The plates are then centrifuged, and the formazan resulting from the reaction with MTT is solubilized in DMSO. The absorbance is measured at 570 nm, with a correction at 690 nm.
The MTT test was chosen to measure the cell viability on the basis of the data obtained after treating the cell with 60 μm digitonin (73% reduction±10%) and with 10% and 20% DMSO.
The damage to the CnAOEC cells caused by free radicals is obtained from a treatment with H2O2 at a concentration range from 0.5 mM to 16 mM.

[6] = humans; cited from earlier work
[7] = dogs; cited from earlier work

Compound: C[N+](C)(C)C[C@H](O)CC(=O)[O-].O=C(O)C(O)C(O)C(=O)O [L-carnitine, L-carnitine-L-tartrate]
- ABTS radical inhibition [1]: did not display any effect; also recorded: do not display any scavenging activity with ABTS
- ABTS°+ inhibition % ([1]; sample 1 μg/ml): 0.45%
- ABTS°+ inhibition % ([1]; sample 50 μg/ml): 0.37%
- ABTS°+ inhibition % ([1]; sample 250 μg/ml): 0.92%
- drop in CnAOEC cell proliferation (CnAOEC cells [2]; 50 μg/ml, 48 hours): 3.75%
- renewal rate (proliferation relative to control set at 100%) (CnAOEC cells [2]; 50 μg/ml, 48 hours): 96.25%
- % DPPH (radical inhibition) (DPPH antioxidant test; sample 1 μg/ml): 6.74%
- % DPPH (radical inhibition) (DPPH antioxidant test; sample 50 μg/ml): 4.97%
- % DPPH (radical inhibition) (DPPH antioxidant test; sample 250 μg/ml): 15% and 14.94%
- DPPH scavenging activity (DPPH antioxidant test; text on Table B): low
- protective effect on CnAOEC cell viability (CnAOEC cells [3]): not capable of maintaining CnAOEC cell viability
- protective effect on CnAOEC cell viability against H2O2 (CnAOEC cells [3]): did not display a protective effect

Compound: CC(=O)N[C@@H](CS)C(=O)O [N-acetylcysteine]
- inhibition of the pro-apoptotic effects of free fatty acids (CnAOEC cells [4]): not completely inhibited
- effect on CnAOEC cell apoptosis (CnAOEC cells [4]): inhibit apoptosis in CnAOEC cells significantly; also recorded: cell apoptosis is inhibited

Compound: NCCS(=O)(=O)O [Taurine, taurine]
- ABTS radical inhibition [1]: did not display any effect; also recorded: do not display any scavenging activity with ABTS
- ABTS°+ inhibition % ([1]; sample 1 μg/ml): −0.50%
- ABTS°+ inhibition % ([1]; sample 50 μg/ml): −0.69%
- ABTS°+ inhibition % ([1]; sample 250 μg/ml): −0.62%
- drop in CnAOEC cell proliferation (CnAOEC cells [2]; 50 μg/ml, 48 hours): 4%
- % DPPH (radical inhibition) (DPPH antioxidant test; sample 1 μg/ml): 4.95%
- % DPPH (radical inhibition) (DPPH antioxidant test; sample 50 μg/ml): 10.84%
- % DPPH (radical inhibition) (DPPH antioxidant test; sample 250 μg/ml): 25.09%
- % DPPH (radical inhibition) (DPPH antioxidant test; sample 250 μg/ml, listed as taurine): 24%
- protective effect on CnAOEC cell viability (CnAOEC cells [3]): not capable of maintaining CnAOEC cell viability
- protective effect on CnAOEC cell viability against H2O2 (CnAOEC cells [3]): did not display a protective effect

Compound: Cc1c(C)c2c(c(C)c1O)CCC(C)(C(=O)O)O2 (stereo not drawn) [Trolox, reference compound]
- % DPPH (radical inhibition) (DPPH antioxidant test; 5 μM): 4.21%
- % DPPH (radical inhibition) (DPPH antioxidant test; 10 μM): 9.91%
- % DPPH (radical inhibition) (DPPH antioxidant test; 15 μM): 17.00%
- % DPPH (radical inhibition) (DPPH antioxidant test; 20 μM): 23.49%
- % DPPH (radical inhibition) (DPPH antioxidant test; 25 μM): 28.6%
- % DPPH (radical inhibition) (DPPH antioxidant test; 30 μM): 33.06%
- % DPPH (radical inhibition) (DPPH antioxidant test; 40 μM): 41.18%

Compound: C[C@@H]1CC[C@@]2(OC1)O[C@H]1[C@@H](O)[C@H]3[C@@H]4CC[C@H]5C[C@@H](O[C@@H]6O[C@H](CO)[C@H](O[C@@H]7O[C@H](CO)[C@@H](O)[C@H](O[C@@H]8OC[C@@H](O)[C@H](O)[C@H]8O)[C@H]7O[C@@H]7O[C@H](CO)[C@H](O)[C@H](O[C@@H]8O[C@H](CO)[C@@H](O)[C@H](O)[C@H]8O)[C@H]7O)[C@H](O)[C@H]6O)[C@H](O)C[C@]5(C)[C@H]4CC[C@]3(C)[C@H]1[C@@H]2C [digitonin]
- reduction of cell viability (MTT) (CnAOEC cells [5]): 73%

Compound: O=c1oc2c(O)c(O)cc3c(=O)oc4c(O)c(O)cc1c4c23 [ellagic acid]
- plasma concentration after dietary supplementation with pomegranate extract [6]: approximately 10 μg/ml

Compound: O=c1c(-c2ccc(O)cc2)coc2cc(O)cc(O)c12 [genistein]
- plasma concentrations after oral supplementation [7]: ≤ 5000 ng/mL

Compound: N[C@@H](CCC(=O)N[C@@H](CS)C(=O)NCC(=O)O)C(=O)O [glutathione]
- inhibition of the pro-apoptotic effects of free fatty acids (CnAOEC cells [4]): not completely inhibited
- effect on CnAOEC cell apoptosis (CnAOEC cells [4]): inhibit apoptosis in CnAOEC cells significantly; also recorded: cell apoptosis is inhibited
- proliferation, % of the control (CnAOEC cells [2]; 10 mmol/l, positive control): 54.75%
- effect on CnAOEC cell proliferation (CnAOEC cells [2]): reduce CnAOEC cell proliferation considerably

Compound: CCCCC/C=C\C/C=C\CCCCCCCC(=O)O [linoleic acid, reference compound]
- effect on CnAOEC cell apoptosis (CnAOEC cells [4]): very strong pro-apoptotic reaction
- effect on CnAOEC cell proliferation (CnAOEC cells [2]): inhibit endothelial proliferation completely; also recorded: reduce CnAOEC cell proliferation considerably

Compound: CCCCC/C=C\C/C=C\C/C=C\CCCCC(=O)O [γ-linolenic acid, reference compound]
- effect on CnAOEC cell apoptosis (CnAOEC cells [4]): very strong pro-apoptotic reaction
- effect on CnAOEC cell proliferation (CnAOEC cells [2]): inhibit endothelial proliferation completely; also recorded: reduce CnAOEC cell proliferation considerably

Compound: VEGF
- effect on CnAOEC cell proliferation (CnAOEC cells [2]): no pro-proliferation effect on CnAOEC cells; also recorded: did not induce the same response in CnAOEC cells; also recorded: have no influence on CnAOEC cell proliferation

Compound: bFGF: basic Fibroblast Growth Factor, vascular growth factor reference
- effect on CnAOEC cell proliferation (CnAOEC cells [2]): no pro-proliferation effect on CnAOEC cells; also recorded: did not induce the same response in CnAOEC cells; also recorded: have no influence on CnAOEC cell proliferation

Source: patent US20140335180A1, “PRODUCTS FOR ORAL ADMINISTRATION COMPRISING EXTRACTS OF PUNICA GRANATUM (POMEGRANATE), INTENDED FOR A PET, AND APPLICATIONS OF SAME” (VIRBAC SA, priority 2011, published 2014)
